Assay results taken from ChEMBL document CHEMBL5303573, “Mapping human microbiome drug metabolism by gut bacteria and their genes” (Nature, 2019).

Columns and labels:
[1] = bacteroides fragilis, 12 h, 2 µM
Description: The drug is tested on Bacteroides fragilis strain: 3397 (T10) for biotransformation. The drug concentrations were measured before and after a 12-h incubation by liquid-chromatography-coupled mass spectrometry (LC–MS)

[2] = limosilactobacillus reuteri cf48-3a, 12 h, 2 µM
Description: The drug is tested on Lactobacillus reuteri CF48-3A strain: BEI HM-102 for biotransformation. The drug concentrations were measured before and after a 12-h incubation by liquid-chromatography-coupled mass spectrometry (LC–MS)

[3] = The drug is tested on Eubacterium ventriosum strain: ATCC27560 for biotransformation. The drug concentrations were measured before and after a 12-h incubation by liquid-chromatography-coupled mass spectrometry (LC–MS); type: ADME; design: dose 2 uM, timepoint 0 vs 12 hours; settings: 2 µM
[4] = The drug is tested on Clostridium sp. strain: fecal isolate for biotransformation. The drug concentrations were measured before and after a 12-h incubation by liquid-chromatography-coupled mass spectrometry (LC–MS); settings: 2 µM
[5] = The drug is tested on Clostridium sporogenes strain: ATCC15579 for biotransformation. The drug concentrations were measured before and after a 12-h incubation by liquid-chromatography-coupled mass spectrometry (LC–MS); settings: 2 µM
[6] = The drug is tested on Escherichia coli strain: BW25113 for biotransformation. The drug concentrations were measured before and after a 12-h incubation by liquid-chromatography-coupled mass spectrometry (LC–MS); settings: 2 µM
[7] = akkermansia muciniphila, 12 h, 2 µM
Description: The drug is tested on Akkermansia muciniphila strain: ATCC BAA-835 for biotransformation. The drug concentrations were measured before and after a 12-h incubation by liquid-chromatography-coupled mass spectrometry (LC–MS)

[8] = The drug is tested on Bacteroides coprophilus strain: DSM18228 for biotransformation. The drug concentrations were measured before and after a 12-h incubation by liquid-chromatography-coupled mass spectrometry (LC–MS); settings: 2 µM
[9] = The drug is tested on Enterococcus faecalis strain: V583 for biotransformation. The drug concentrations were measured before and after a 12-h incubation by liquid-chromatography-coupled mass spectrometry (LC–MS); settings: 2 µM
[10] = The drug is tested on Blautia hansenii strain: DSM20583 for biotransformation. The drug concentrations were measured before and after a 12-h incubation by liquid-chromatography-coupled mass spectrometry (LC–MS); settings: 2 µM
[11] = segatella copri, 12 h, 2 µM
Description: The drug is tested on Prevotella copri strain: DSM18205 for biotransformation. The drug concentrations were measured before and after a 12-h incubation by liquid-chromatography-coupled mass spectrometry (LC–MS)

[12] = The drug is tested on Bifidobacterium breve strain: DSM20213 for biotransformation. The drug concentrations were measured before and after a 12-h incubation by liquid-chromatography-coupled mass spectrometry (LC–MS); settings: 2 µM
[13] = bifidobacterium adolescentis, 12 h, 2 µM
Description: The drug is tested on Bifidobacterium adolescentis strain: ATCC 15703 for biotransformation. The drug concentrations were measured before and after a 12-h incubation by liquid-chromatography-coupled mass spectrometry (LC–MS)

[14] = The drug is tested on Eubacterium hallii strain: DSM3353 for biotransformation. The drug concentrations were measured before and after a 12-h incubation by liquid-chromatography-coupled mass spectrometry (LC–MS); settings: anaerobutyricum hallii, 2 µM
[15] = roseburia intestinalis, 12 h, 2 µM
Description: The drug is tested on Roseburia intestinalis strain: L1-82 for biotransformation. The drug concentrations were measured before and after a 12-h incubation by liquid-chromatography-coupled mass spectrometry (LC–MS)

[16] = The drug is tested on Bacteroides ovatus strain: ATCC8483 for biotransformation. The drug concentrations were measured before and after a 12-h incubation by liquid-chromatography-coupled mass spectrometry (LC–MS); settings: 2 µM
[17] = The drug is tested on Bacteroides uniformis strain: ATCC8492 for biotransformation. The drug concentrations were measured before and after a 12-h incubation by liquid-chromatography-coupled mass spectrometry (LC–MS); settings: 2 µM
[18] = The drug is tested on Bacteroides fragilis strain: ATCC43859 for biotransformation. The drug concentrations were measured before and after a 12-h incubation by liquid-chromatography-coupled mass spectrometry (LC–MS); settings: 2 µM
[19] = The drug is tested on Odoribacter splanchnicus strain: fecal isolate for biotransformation. The drug concentrations were measured before and after a 12-h incubation by liquid-chromatography-coupled mass spectrometry (LC–MS); settings: 2 µM

Row | SMILES | Bacterial Biotransformation [1] | Bacterial Biotransformation [2] | Bacterial Biotransformation [3] | Bacterial Biotransformation [4] | Bacterial Biotransformation [5] | Bacterial Biotransformation [6] | Bacterial Biotransformation [7] | Bacterial Biotransformation [8] | Bacterial Biotransformation [9] | Bacterial Biotransformation [10] | Bacterial Biotransformation [11] | Bacterial Biotransformation [12] | Bacterial Biotransformation [13] | Bacterial Biotransformation [14] | Bacterial Biotransformation [15] | Bacterial Biotransformation [16] | Bacterial Biotransformation [17] | Bacterial Biotransformation [18] | Bacterial Biotransformation [19]
1 | OCCN(CCO)c1nc(N2CCCCC2)c2nc(N(CCO)CCO)nc(N3CCCCC3)c2n1 [DIPYRIDAMOLE] | Compound NOT metabolized | Compound NOT metabolized | Compound NOT metabolized | Compound metabolized | Compound metabolized | Compound NOT metabolized | Compound NOT metabolized | Compound NOT metabolized | Compound NOT metabolized | Compound metabolized | Compound NOT metabolized | Compound NOT metabolized | Compound NOT metabolized | Compound NOT metabolized | Compound NOT metabolized | Compound NOT metabolized |  |  | 
2 | C#C[C@]1(O)CC[C@H]2[C@@H]3CCC4=CC(=O)CC[C@@H]4[C@H]3CC[C@@]21CC [LEVONORGESTREL] | Compound metabolized | Compound NOT metabolized | Compound NOT metabolized | Compound metabolized | Compound metabolized | Compound NOT metabolized | Compound NOT metabolized | Compound NOT metabolized |  |  | Compound NOT metabolized | Compound NOT metabolized | Compound NOT metabolized | Compound NOT metabolized |  | Compound NOT metabolized | Compound metabolized | Compound metabolized | Compound metabolized
3 | OC(Cn1cncn1)(Cn1cncn1)c1ccc(F)cc1F [FLUCONAZOLE] | Compound metabolized | Compound NOT metabolized | Compound NOT metabolized | Compound metabolized | Compound metabolized | Compound NOT metabolized | Compound metabolized | Compound NOT metabolized | Compound NOT metabolized | Compound metabolized | Compound NOT metabolized | Compound NOT metabolized | Compound NOT metabolized |  |  | Compound metabolized | Compound metabolized |  | Compound metabolized
4 | CN1CCN2c3ccccc3Cc3ccccc3C2C1 (stereo not given) [MIANSERIN] | Compound NOT metabolized | Compound NOT metabolized | Compound NOT metabolized |  | Compound NOT metabolized | Compound NOT metabolized | Compound NOT metabolized | Compound NOT metabolized | Compound NOT metabolized | Compound NOT metabolized |  | Compound NOT metabolized | Compound NOT metabolized | Compound NOT metabolized |  | Compound NOT metabolized | Compound NOT metabolized |  | Compound NOT metabolized
5 | CC1Cc2ccccc2N1NC(=O)c1ccc(Cl)c(S(N)(=O)=O)c1 (stereo not given) [INDAPAMIDE] | Compound NOT metabolized |  |  | Compound NOT metabolized | Compound NOT metabolized |  | Compound NOT metabolized | Compound NOT metabolized | Compound NOT metabolized | Compound NOT metabolized | Compound NOT metabolized | Compound NOT metabolized | Compound NOT metabolized | Compound NOT metabolized | Compound NOT metabolized | Compound NOT metabolized | Compound NOT metabolized |  | Compound NOT metabolized
6 | O=C1NCC2(CCN(CCc3ccccc3)CC2)O1 [FENSPIRIDE] | Compound metabolized | Compound NOT metabolized | Compound NOT metabolized | Compound NOT metabolized | Compound NOT metabolized | Compound NOT metabolized | Compound NOT metabolized | Compound metabolized | Compound NOT metabolized |  | Compound metabolized | Compound NOT metabolized | Compound NOT metabolized | Compound NOT metabolized | Compound NOT metabolized | Compound metabolized | Compound metabolized | Compound metabolized | Compound NOT metabolized
7 | COCCc1ccc(OCC(O)CNC(C)C)cc1.COCCc1ccc(OCC(O)CNC(C)C)cc1.O=C(O)C(O)C(O)C(=O)O (stereo not given) [METOPROLOL TARTRATE] | Compound NOT metabolized | Compound NOT metabolized | Compound NOT metabolized | Compound NOT metabolized | Compound NOT metabolized | Compound NOT metabolized |  | Compound NOT metabolized | Compound NOT metabolized |  |  | Compound NOT metabolized | Compound NOT metabolized | Compound NOT metabolized | Compound NOT metabolized | Compound NOT metabolized | Compound NOT metabolized | Compound metabolized | Compound NOT metabolized
8 | Cc1ccc(NC(=O)c2ccc(CN3CCN(C)CC3)cc2)cc1Nc1nccc(-c2cccnc2)n1 [IMATINIB] |  |  | Compound NOT metabolized |  |  |  | Compound NOT metabolized | Compound NOT metabolized | Compound NOT metabolized | Compound NOT metabolized | Compound NOT metabolized | Compound NOT metabolized | Compound NOT metabolized |  | Compound NOT metabolized | Compound NOT metabolized | Compound NOT metabolized | Compound NOT metabolized | Compound NOT metabolized
